Experimental data: patent US20040121965A1, “Method of treating resistant tumors” (Wyeth Holdings Corporation, priority 2002, published 2004)
Like-named read-outs stand apart in the source and are kept apart here. Marks after values point to notes of the source that are not given here.

Tests used:
tumor cell lines = assay: cells; format: cell-based
Excerpt: (§1) Cells lines with previously known mechanisms of resistance. […] Res. 8: 207-218,1996); KB-3-1 (parental derived from an epidermoid carcinoma), KB-8.5, KB-V1 (Akiyama S-I, Fojo A, Hanover J A, Pastan I, Gottesman M M. Isolation and genetic characterization of human KB cell lines resistant to multiple drugs. Somatic Cell Mol. Gen., 11: 117-126,1985; Shen D-W, Cardarelli C, Hwang J, Cornwell M, Richert N, Ishii S, Pastan I, Gottesman MM. […] J. Biol. Chem., 261: 7762-7770, 1986); and HL-60 (parental derived from human leukemia) and HL60/AR (McGrath T., Center M. S. Adriamycin resistance in HL60 cells in the absence of detectable P-glycoprotein. Biochem. Res. Commun., 145:1171-1176,1987); A549 and A549.EpoB40 (He L., Yang C.-P.H., Horwitz S. B. Mutations in p-tubulin map to domains involved in regulation of microtubule stability in epothilone-resistant cell lines. Molecular Cancer Therapeutics. 1: 3-10, 2001). HCT-15 human colon carcinoma and DLD-1 human colon carcinoma are obtained from American Tissue Culture Collection. The MX-1W carcinoma is a Wyeth variant orginally obtained as MX-1 breast carcinoma from the National Cancer Institute. Cell lines selected for resistance to Representative Example 129. KB-3-1 cells are selected for resistance to Example 129 by chronically exposing cells to increasing concentrations of Example 129.
(§2) 2.2. Cell Survival Assay: Standard Pharmacological Test Procedure. The concentration of candidate inhibitor required to inhibit 50% of cell growth (IC50) is done according to previously reported methods. […] Compounds are serially diluted into media as 2× stocks and 100 μl added to cells in duplicate. Compounds are incubated with cells for 3 days. At the end of the incubation period the sulforhodamine B (SRB) assay, which measures protein content as an assessment of cell survival, is performed as described previously (Skehan P, Storeng R, Scudiero D, Monks A, McMahon J, Vistica D, Warren J T, Bokesch H, Kenney S, Boyd MR. New calorimetric cytotoxicity assay for anticancer-drug screening. J Natl Cancer Inst 1990 Jul 4;82(13):1107-12) with some modification as follows. For KB-3-1 cells with 20% FCS, media is gently decanted and replaced with 200 μl of serum-free media mixed with cold 50% TCA for a final concentration of 10% TCA. The plates are incubated for 1 hr at 4° C., followed by washing 5 times in cold distilled water, then air dried overnight. The fixed cells are stained for 10 min with 80 μl of 0.04% SRB solution prepared in 1% glacial acetic acid. Stain is discarded and plates washed 5 times in 1% glacial acetic acid, then air-dried until completely dry. Stained cell product is dissolved in 150 μl of 10 mM Trizma Base and placed on a shaker for 20 minutes until fully dissolved. Absorbance is read on a Victor V multi-label plate reader (Perkin Elmer, Gaithersburg, Md.).

KM20 = assay: Cell survival assay (SRB), KM20; format: cell-based; conditions: 72 h
Procedure: (§3) 2.2. Cell Survival Assay: Standard Pharmacological Test Procedure. […] Compounds are incubated with cells for 3 days.

KB-3-1 = assay: Cell survival assay (SRB), KB-3-1; format: cell-based, human
Method in brief: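 Step 1: add serial compound dilutions to cells in duplicate. Step 2: incubate 3 days. Step 3: fix in 10% TCA for 1 hr at 4 °C, stain with 0.04% SRB for 10 min, wash in 1% acetic acid, solubilise in 10 mM Trizma Base, measure absorbance and derive the 50%-growth-inhibition concentration.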

CCRF-CEM = assay: Cell survival assay (MTS), CCRF-CEM; format: cell-based; conditions: Homo sapiens, 72 h
Procedure: as §3

HL60 = assay: Cell survival assay (MTS), HL60; format: cell-based; conditions: Homo sapiens
A375 = assay: Cell survival assay (SRB), A375; format: cell-based; conditions: Homo sapiens, A-375, 72 h
Procedure: as §3

NCI-H1299 = assay: Cell survival assay (SRB), NCI-H1299; format: cell-based; conditions: Homo sapiens
Procedure: as §3

1A9 = assay: Cell survival assay (SRB), 1A9; format: cell-based; conditions: Homo sapiens
Procedure: as §3

BxPC3 = assay: Cell survival assay (SRB), BxPC3; format: cell-based; conditions: Homo sapiens, BXPC-3, 72 h
Procedure: as §3

HL60/AR (MRP1) = assay: Cell survival assay, HL60/AR (MRP1); conditions: for IC50: Homo sapiens, HL-60/AR, read-out: HL60/AR (MRP1) IC50, nM (N)
Excerpt: as §1, §2
(§4) J. Cell Science,113: 2011-2021, 2000). It was unknown whether the hemiasterlin family of peptides interact with these drug pumps.

S1-M1-3.2 (MXR) = assay: Cell survival assay, S1-M1-3.2 (MXR); format: cell-based, human; conditions: for IC50: Homo sapiens, read-out: S1-M1-3.2 (MXR) IC50, nM (N)
Excerpt: as §1, §2, §4

A549.EpoB40 = format: cell-based; conditions: vs A549; below 1 = sensitive
Excerpt: as §1
as §2, with “Stained cell product is dissolved in 150 μl of 10 mM Trizma Base and placed on a shaker for 20 minutes until fully dissolved.” left out

MX-1W tumor = assay: Growth of tumors in nude mice, MX-1W xenograft; format: in vivo; conditions: for % T/C on day 7 / % T/C on day 14: MX-1W, days 1,5,9; for Activity in nude mice animal model (% T/C @ MTD on days 11-15) MX-1W: staged MX-1W xenograft, at MTD
Excerpt: (§5) 2.4. Growth of Tumors in Nude Mice.

[1] = tested on: human carcinoma xenografts; assay: Growth of tumors in nude mice, several xenograft models and tolerated dose; format: in vivo
Excerpt: as §5

[2] = HL60/AR (MRP1) or S1-M1-3.2 (MXR)

With `CN[C@H](C(=O)N[C@H](C(=O)N(C)[C@H](/C=C(\C)C(=O)O)C(C)C)C(C)(C)C)C(C)(C)c1ccccc1` [Example 129, N,β,β-trimethyl-L-phenylalanyl-N^1-[(1S,2E)-3-carboxy-1-isopropylbut-2-enyl]-N^1,3-dimethyl-L-valinamide] the IC50 (tumor cell lines; 72 h, read-out: AVERAGE IC50 (nM), average over the panel of tumor cell lines of Table 1; 3 days) was 2.1 ± 1.7 nM, the “resistance detected in cells over-expressing MRP1 or MXR” value (tumor cell lines; [2]) was “no resistance” and the IC50 (tumor cell lines; read-out: IC50 in cell lines expressing moderate to very high MDR1, MX-1W, NCI-H1299, DLD-1, HCT-15) was 1.1 to 6.8 nM. It also gave an IC50 (tumor cell lines; read-out: IC50 in cell lines with undetectable or low level MDR1, NCI-H838, A549, HT-29, HCT-116, KB-3-1) of 0.7 to 1.6 nM, an IC50 (tumor cell lines; read-out: mean IC50, 34 tumor cell lines (Example 129); N=31 cell lines (paclitaxel)) of 2.1 ± 1.7 nM and an IC50 (tumor cell lines; read-out: median IC50, 34 tumor cell lines (Example 129); N=31 cell lines (paclitaxel)) of 1.7 nM. For the same compound, the IC50 (tumor cell lines; read-out: range of IC50, 34 tumor cell lines (Example 129); N=31 cell lines (paclitaxel)) was 0.2 to 7.3 nM, the IC50 (tumor cell lines; read-out: range of IC50; 34 tumor cell lines (Example 129); N=31 cell lines (paclitaxel)) was 0.2 to 7 nM and the IC50 (KM20) was 1.8 ± 0.6 nM. The IC50 (KB-3-1) was 1.2 nM, the IC50 (KB-3-1; Homo sapiens, KB 3-1) was ~1 nM and the IC50 (KB-3-1; Homo sapiens, KB 3-1, 72 h) was 0.96 nM. The IC50 (KB-3-1; Homo sapiens, KB 3-1, 72 h, read-out: IC50 + 5.0 uM MDR-1 inhibitor) was 0.9 nM, the IC50 (KB-3-1; Homo sapiens, KB 3-1, 72 h, read-out: IC50 in parental cell line KB-3-1) was 1 nM and the IC50 (KB-3-1; Homo sapiens, KB 3-1, read-out: KB-3-1 IC50 (nM)) was 0.612 ± 0.023 nM. The IC50 (KB-3-1; Homo sapiens, KB 3-1, read-out: KB-3-1 IC50, nM) was 0.53 ± 0.05 nM, the IC50 (KB-3-1; Homo sapiens, KB 3-1, read-out: KB-3-1 IC50, nM (N)) was 0.96 nM and the IC50 (CCRF-CEM) was 0.2 ± 0.03 nM. It also gave an IC50 (HL60; HL-60, 72 h) of 0.21 ± 0.05 nM, an IC50 (HL60; HL-60, read-out: HL60 IC50, nM (N)) of 0.212 ± 0.048 nM and an IC50 (A375) of 1.1 ± 0.8 nM. The IC50 (NCI-H1299; NCI-H1299, 72 h) was 6.8 ± 6.1 nM, the IC50 (1A9; 1A9, 72 h) was 0.56 ± 0.09 nM and the IC50 (BxPC3) was 0.7 nM. The IC50 (HL60/AR (MRP1)) was 0.245 ± 0.45 nM, the “RR, relative resistance” value (HL60/AR (MRP1); IC50 HL60/AR / IC50 HL60) was 1.2 and the IC50 (S1-M1-3.2 (MXR)) was 4.8 ± 2.1 nM. For the same compound, the “RR, relative resistance” value (S1-M1-3.2 (MXR); IC50 S1-M1-3.2 / IC50 S1) was 1.3, the “resistance of A549.EpoB40 cells” value (A549.EpoB40) was 0.6 fold and the “% T/C on day 7” value (MX-1W tumor; Example 129 1.6 mg/kg IV) was 14** %. The “% T/C on day 14” value (MX-1W tumor; Example 129 1.6 mg/kg IV) was 3** %, the “effect on growth of MX-1W tumor” value (MX-1W tumor; orally administered) was “inhibited the growth” and the “Activity in nude mice animal model (% T/C @ MTD on days 11-15) MX-1W” value (MX-1W tumor) was 6%. The “inhibition of tumor growth” value ([1]; tumors derived from DLD-1, MX-1W or HCT-15) was 60-95%.
For `CC(=O)O[C@H]1C(=O)[C@@]2(C)[C@H]([C@H](OC(=O)c3ccccc3)[C@]3(O)C[C@H](OC(=O)[C@H](O)[C@@H](NC(=O)c4ccccc4)c4ccccc4)C(C)=C1C3(C)C)[C@]1(OC(C)=O)CO[C@@H]1C[C@@H]2O` [paclitaxel, reference compound], the IC50 (tumor cell lines; 34 tumor cell lines (Example 129); N=31 cell lines (paclitaxel); read-out: mean IC50) was 80.2 nM, the IC50 (tumor cell lines; 34 tumor cell lines (Example 129); N=31 cell lines (paclitaxel); read-out: median IC50) was 9 nM and the IC50 (tumor cell lines; 34 tumor cell lines (Example 129); N=31 cell lines (paclitaxel); read-out: range of IC50) was 1.8 to 1590 nM. For the same compound, the IC50 (tumor cell lines; 72 h, average over the panel of tumor cell lines of Table 1; 3 days; read-out: AVERAGE IC50) was 80.2 nM, the “resistance detected in cells over-expressing MRP1 or MXR” value (tumor cell lines; [2]) was “no resistance” and the IC50 (tumor cell lines; MX-1W, NCI-H1299, DLD-1, HCT-15; read-out: IC50 in cell lines expressing moderate to very high MDR1) was 15 to 438 nM. The IC50 (tumor cell lines; NCI-H838, A549, HT-29, HCT-116, KB-3-1; read-out: IC50 in cell lines with undetectable or low level MDR1) was 3.9 to 8.8 nM, the IC50 (KM20; KM20, colon, 3 days, SRB staining, read-out: IC50) was 8.9 ± 1.9 nM and the IC50 (KB-3-1; Homo sapiens, KB 3-1, 72 h, KB-3-1, epidermoid, 3 days, SRB staining, read-out: IC50) was 3.9 ± 1.8 nM. For the same compound, the IC50 (KB-3-1; Homo sapiens, KB 3-1, 72 h, KB-3-1, 3 days, SRB, + 5.0 uM MDR-1 inhibitor (heptanenitrile), mean of two experiments, read-out: IC50 + 5.0 uM MDR-1 inhibitor) was 2.1 nM, the IC50 (KB-3-1; Homo sapiens, KB 3-1, 72 h, KB-3-1, 3 days, SRB, vehicle (DMSO), no MDR-1 inhibitor, mean of two experiments, read-out: IC50) was 2.2 nM and the IC50 (KB-3-1; Homo sapiens, KB 3-1, 72 h, amount of drug needed to kill 50% of cells after three days continuous exposure, Table 11, read-out: IC50 in parental cell line KB-3-1) was 3.9 nM. The IC50 (KB-3-1; Homo sapiens, KB 3-1, KB-3-1, Table 6, read-out: KB-3-1 IC50) was 2.74 ± 0.39 nM, the IC50 (KB-3-1; Homo sapiens, KB 3-1, KB-3-1 parental, Table 3, read-out: KB-3-1 IC50, nM (N)) was 3.9 ± 1.8 nM and the IC50 (KB-3-1; Homo sapiens, KB 3-1, KB-3-1 parental, Table 8, read-out: KB-3-1 IC50) was 2.66 ± 0.92 nM. The IC50 (CCRF-CEM; leukemia, 3 days, MTS assay, read-out: IC50) was 3.3 ± 1.3 nM, the IC50 (HL60; HL-60, 72 h, HL60, leukemia, 3 days, MTS assay, read-out: IC50) was 1.8 nM and the IC50 (HL60; HL-60, HL60 parental, Table 5, read-out: HL60 IC50, nM (N)) was 1.8 nM. The IC50 (A375; A375, melanoma, 3 days, SRB staining, read-out: IC50) was 14.1 ± 7.3 nM, the IC50 (NCI-H1299; 72 h, NCI-H1299, NSCLC, 3 days, SRB staining, read-out: IC50) was 37.7 ± 12.6 nM and the IC50 (1A9; 72 h, 1A9, ovarian, 3 days, SRB staining, read-out: IC50) was 5.1 ± 0.9 nM. For the same compound, the IC50 (BxPC3; BxPC3, pancreatic, 3 days, SRB staining, read-out: IC50) was 10.8 nM, the IC50 (HL60/AR (MRP1)) was 5.2 nM and the IC50 (S1-M1-3.2 (MXR); S1-M1-3.2, MXR over-expression, Table 5) was 108 ± 88 nM. The “resistance of A549.EpoB40 cells” value (A549.EpoB40) was 13 fold, the “% T/C on day 7” value (MX-1W tumor; paclitaxel 60 mg/kg IV) was 76% and the “% T/C on day 14” value (MX-1W tumor; paclitaxel 60 mg/kg IV) was 77%. The “Activity in nude mice animal model (% T/C @ MTD on days 11-15) MX-1W” value (MX-1W tumor) was 73% and the response of tumors ([1]; DLD-1, MX-1W or HCT-15 tumors, at or near the MTD) was “no response”.
